Holding throughout (format): biochemical
For test [1], the system named is PRMT3. As to the kind of experiment: selectivity of YD1113/YD1290 on PRMT panel, PRMT3. The procedure: (§1) The selectivity of compounds YD1113 and YD1290 on PRMTs were performed by Reaction Biology Corp.
(§2) Next, the selectivity of YD1113 was investigated on a panel of PRMTs at 10 μM.
(§3) After validating the benzyl urea moiety as an unconventional homocysteine mimic of SAH for PRMTs, it was hypothesized that incorporating the benzyl urea moiety into the original pan PRMT inhibitor II757 would build a potent bisubstrate inhibitor. […] To enable a stable tri-substitution, the sulfur atom with a nitrogen atom was replaced. YD1290 was synthesized following the reported methods 9, 15 and tested in a radioactivity assay for PRMTs (FIG. 6b).

For test [2], the target named is T1, PRMT6 (Homo sapiens, UniProt Q96LA8). As to the kind of experiment: selectivity of YD1113/YD1290 on PRMT panel, PRMT6. The procedure: as §1, §2, §3
The subject of a further test is PRMT7. As to the kind of experiment: selectivity of YD1113 on PRMT panel, PRMT7. The procedure: as §1, §2
Test [3] addresses T2, PRMT8 (Homo sapiens, UniProt Q9NR22). Nature of the test: selectivity of YD1113/YD1290 on PRMT panel, PRMT8. The protocol: as §1, §2, §3
Test [4] addresses T3, PRMT1 (Homo sapiens, UniProt Q99873).
T3 construct: made in house
Nature of the test: SAHH-coupled fluorescence assay, inhibition of PRMT1. In short, it runs like this:
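PRMT1 (0.1 μM) was run with 10 μM AdoMet, 5 μM SAHH and 10 μM ThioGlo4 in 2.5 mM HEPES pH 7.0, 25 mM NaCl, 25 μM EDTA, 50 μM TCEP and 0.01% Triton X-100. Fluorescence (ex 400/em 465 nm) was monitored for 15 min. Assays were done in duplicate.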

The subject of test [5] is PRMT4. Nature of the test: selectivity of YD1113/YD1290 on PRMT panel, PRMT4. The protocol:
as §1, §2, §3

Test [6] addresses T3, PRMT1. As to the kind of experiment: selectivity of YD1113/YD1290 on PRMT panel, PRMT1. The procedure:
as §1, §2, §3

In another test the target is PRMT5 (Homo sapiens, UniProt O14744). Nature of the test: selectivity of YD1113 on PRMT panel, PRMT5. The following applies: read-out: IC50 (nM) | PRMT5. The protocol: as §1, §2
Test [7] has as its system PRMT3. Nature of the test: SAHH-coupled fluorescence assay, inhibition of PRMT3. The note with it: read-out: IC50 [µM] | PRMT3. The protocol: A fluorescence-based SAHH-coupled assay was applied to study the inhibition activity of all synthesized compounds on PRMT 1 and 3.
The PRMT3 methylation assay was performed under the following conditions in a final well volume of 100 μL: 20 mM Tris (pH=7.5), 0.01% Triton X-100, 5 μM SAHH, 0.25 μM PRMT3, 30 μM AdoMet, and 15 μM ThioGlo4. […] Fluorescence was monitored on a BMG CLARIOstar microplate reader with excitation 380 nm and emission 505 nm. Data were processed by using GraphPad Prism software 8.0. All experiments were performed in duplicate.
(§4) Next, the inhibition activity of the library was investigated for five PRMT members from type I PRMTs.
The PRMT3 methylation assay was performed under the following conditions in a final well volume of 100 μL: 20 mM Tris (pH=7.5), 0.01% Triton X-100, 5 μM SAHH, 0.25 μM PRMT3, 30 μM AdoMet, and 15 μM ThioGlo4. […] Fluorescence was monitored on a BMG CLARIOstar microplate reader with excitation 380 nm and emission 505 nm. Data were processed by using GraphPad Prism software 8.0.

The target in test [8] is T2, PRMT8. As to the kind of experiment: radioactive assay (Reaction Biology Corp.), inhibition of PRMT8. The protocol: as §4
(§5) The PRMT 4, 6 and 8 methylation assays were performed by Reaction Biology corp.

The target in test [9] is T1, PRMT6. As to the kind of experiment: radioactive assay (Reaction Biology Corp.), inhibition of PRMT6. The following applies: for PRMT6 inhibition: 10 μM. The procedure:
as §4, §5

The target in test [10] is PRMT3 (Homo sapiens, UniProt O60678). As to the kind of experiment: SAHH-coupled fluorescence assay, inhibition of PRMT3. On the set-up: PRMT3 (residues 211-531) was cloned into the pET28a-MHL expression vector; tag of the pET28a-MHL vector (not described); made in house; host or cells: Escherichia coli BL21(DE3). In short, it runs like this: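 Coupled SAHH/ThioGlo4 fluorescence read-out (ex 380 nm, em 505 nm) of PRMT3 (0.25 μM) methylation with 30 μM AdoMet and 5 μM SAHH. Buffer was 20 mM Tris pH 7.5 with 0.01% Triton X-100. Run in duplicate.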

Test [11] relates to PRMT4. Nature of the test: radioactive assay (Reaction Biology Corp.), inhibition of PRMT4. The procedure:
as §4, §5

For test [12], the target named is T4, PRMT4 (Homo sapiens, UniProt Q86X55).
T4 sequence (Q86X55 1-608): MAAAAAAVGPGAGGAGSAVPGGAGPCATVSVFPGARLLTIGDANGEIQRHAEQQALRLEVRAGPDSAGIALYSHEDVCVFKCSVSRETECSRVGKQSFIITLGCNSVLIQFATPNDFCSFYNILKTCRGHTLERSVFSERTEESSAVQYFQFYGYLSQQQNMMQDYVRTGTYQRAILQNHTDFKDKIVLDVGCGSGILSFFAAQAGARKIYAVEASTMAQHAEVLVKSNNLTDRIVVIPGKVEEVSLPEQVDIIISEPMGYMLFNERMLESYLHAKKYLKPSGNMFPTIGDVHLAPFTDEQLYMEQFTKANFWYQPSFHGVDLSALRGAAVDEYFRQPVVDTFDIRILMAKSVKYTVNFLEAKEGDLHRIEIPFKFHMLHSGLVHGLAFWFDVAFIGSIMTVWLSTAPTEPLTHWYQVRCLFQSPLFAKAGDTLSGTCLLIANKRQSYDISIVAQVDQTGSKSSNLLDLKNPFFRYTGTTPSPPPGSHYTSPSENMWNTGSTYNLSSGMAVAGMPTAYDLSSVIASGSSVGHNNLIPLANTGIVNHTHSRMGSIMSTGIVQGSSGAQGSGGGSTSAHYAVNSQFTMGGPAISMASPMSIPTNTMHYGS
The description is as above. The procedure:
as §4, §5

T3 sequence (Q99873 whole entry, species assumed): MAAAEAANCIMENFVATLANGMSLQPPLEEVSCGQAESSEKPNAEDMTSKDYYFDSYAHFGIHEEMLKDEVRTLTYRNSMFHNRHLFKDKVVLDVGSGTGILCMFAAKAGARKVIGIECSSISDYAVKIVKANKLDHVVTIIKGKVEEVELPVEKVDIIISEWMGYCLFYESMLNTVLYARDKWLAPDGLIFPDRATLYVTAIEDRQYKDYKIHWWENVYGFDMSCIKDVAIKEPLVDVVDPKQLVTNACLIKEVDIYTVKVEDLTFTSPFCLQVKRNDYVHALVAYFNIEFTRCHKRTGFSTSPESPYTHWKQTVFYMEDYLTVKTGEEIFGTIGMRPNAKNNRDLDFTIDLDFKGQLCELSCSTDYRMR
Chain of PRMT3 (Homo sapiens, UniProt O60678) (O60678 211-531): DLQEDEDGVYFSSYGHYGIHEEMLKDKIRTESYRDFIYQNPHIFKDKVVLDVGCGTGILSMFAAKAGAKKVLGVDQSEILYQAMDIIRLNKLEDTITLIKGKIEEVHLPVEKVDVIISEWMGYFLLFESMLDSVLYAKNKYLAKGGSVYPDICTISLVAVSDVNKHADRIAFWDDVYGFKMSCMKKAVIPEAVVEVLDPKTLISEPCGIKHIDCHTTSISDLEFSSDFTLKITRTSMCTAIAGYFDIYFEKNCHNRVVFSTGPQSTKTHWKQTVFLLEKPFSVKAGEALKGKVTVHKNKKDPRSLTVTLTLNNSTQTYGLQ
T2 sequence (Q9NR22 whole entry, species assumed): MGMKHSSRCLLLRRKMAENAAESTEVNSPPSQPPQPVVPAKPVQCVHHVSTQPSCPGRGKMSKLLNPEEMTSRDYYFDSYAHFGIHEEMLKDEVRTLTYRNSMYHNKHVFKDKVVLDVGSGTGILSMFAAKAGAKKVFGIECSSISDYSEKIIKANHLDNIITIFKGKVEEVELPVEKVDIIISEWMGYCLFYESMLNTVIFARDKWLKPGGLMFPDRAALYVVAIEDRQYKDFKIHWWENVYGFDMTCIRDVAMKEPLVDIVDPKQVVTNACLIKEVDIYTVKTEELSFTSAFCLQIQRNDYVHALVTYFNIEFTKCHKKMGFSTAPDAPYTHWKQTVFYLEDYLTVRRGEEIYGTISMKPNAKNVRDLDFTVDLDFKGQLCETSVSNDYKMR
T1 sequence (Q96LA8 whole entry, species assumed): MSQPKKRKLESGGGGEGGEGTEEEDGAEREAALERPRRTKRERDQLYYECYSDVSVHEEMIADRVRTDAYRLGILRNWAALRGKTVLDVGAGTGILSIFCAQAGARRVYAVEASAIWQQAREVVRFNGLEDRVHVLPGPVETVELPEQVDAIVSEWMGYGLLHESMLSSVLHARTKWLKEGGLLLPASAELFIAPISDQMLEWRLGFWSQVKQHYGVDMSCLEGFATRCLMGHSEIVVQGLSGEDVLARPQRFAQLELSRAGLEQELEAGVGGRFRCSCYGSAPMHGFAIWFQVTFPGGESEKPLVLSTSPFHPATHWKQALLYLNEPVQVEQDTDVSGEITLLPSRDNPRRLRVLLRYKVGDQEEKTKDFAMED
Chain of PRMT5 (O14744 whole entry, species assumed): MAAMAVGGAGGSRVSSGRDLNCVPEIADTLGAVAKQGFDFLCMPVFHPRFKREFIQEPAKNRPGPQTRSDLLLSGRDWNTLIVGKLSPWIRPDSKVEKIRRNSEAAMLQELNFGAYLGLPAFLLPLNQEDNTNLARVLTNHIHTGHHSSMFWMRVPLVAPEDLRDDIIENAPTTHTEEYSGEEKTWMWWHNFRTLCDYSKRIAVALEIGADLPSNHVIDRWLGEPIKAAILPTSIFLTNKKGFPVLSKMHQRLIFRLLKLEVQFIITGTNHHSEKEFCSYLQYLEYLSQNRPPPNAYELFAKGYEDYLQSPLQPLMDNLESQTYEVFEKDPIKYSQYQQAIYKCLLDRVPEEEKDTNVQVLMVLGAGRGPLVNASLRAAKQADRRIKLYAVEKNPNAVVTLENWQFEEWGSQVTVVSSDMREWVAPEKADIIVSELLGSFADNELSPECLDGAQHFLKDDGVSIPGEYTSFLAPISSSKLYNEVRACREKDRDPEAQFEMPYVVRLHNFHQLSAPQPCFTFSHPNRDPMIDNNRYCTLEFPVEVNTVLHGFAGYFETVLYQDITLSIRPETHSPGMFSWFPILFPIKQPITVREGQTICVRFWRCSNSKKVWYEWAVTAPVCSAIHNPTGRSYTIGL
Chain of PRMT5 (Q9BQA1 whole entry partner, species assumed): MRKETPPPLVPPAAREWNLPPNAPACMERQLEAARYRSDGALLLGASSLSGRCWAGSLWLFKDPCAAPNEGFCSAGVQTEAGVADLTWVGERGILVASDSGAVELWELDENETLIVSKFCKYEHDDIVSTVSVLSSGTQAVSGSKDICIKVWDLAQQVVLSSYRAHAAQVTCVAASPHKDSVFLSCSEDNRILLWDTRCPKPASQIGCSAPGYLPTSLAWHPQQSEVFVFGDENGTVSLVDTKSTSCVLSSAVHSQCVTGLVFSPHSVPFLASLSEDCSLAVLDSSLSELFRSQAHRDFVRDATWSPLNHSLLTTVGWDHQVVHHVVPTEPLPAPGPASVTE

Turning to `N=C(NCCCSC[C@H]1O[C@@H](n2cnc3c(NCC#Cc4ccc(O)cc4)ncnc32)C(O)[C@H]1O)Nc1cccc(Br)c1` (stereo in doubt) [YD1-250], the IC50 – broadly, the concentration needed to halve the response being measured – in the test with PRMT3 [1] was 1640 nM; against PRMT6 [2], 44 nM; in the test on PRMT7, 2640 nM; against PRMT8 [3], 38 nM; in the test with PRMT4 [5], 203 nM; against PRMT1 [6], 7.6 nM. The IC50 on PRMT5 is 136 nM. For the same compound, at PRMT1 [4], the “PRMT1 inhibition” value is reported as “PRMT1 inhibitors”.

Regarding `Nc1ncnc2c1ncn2[C@@H]1O[C@H](CSCCNC(=O)NCc2ccc(F)cc2)[C@@H](O)[C@H]1O` [Compound 7d, 1-(2-((((2S,3S,4R,5R)-5-(6-amino-9H-purin-9-yl)-3,4-dihydroxytetrahydrofuran-2-yl)methyl)thio)ethyl)-3-(4-fluorobenzyl)urea], the IC50 with PRMT3 [7] is 5.9 ± 1.4 µM; in the test on PRMT4 [11], 270 ± 60 nM. Besides, the inhibition (in general, the relative decrease from the control value, in per cent) at 10 µM worked out at 8% at PRMT8 [8]; 25% at PRMT6 [9]; 6% against PRMT1 [4]; 62% at PRMT3 [10]; 95% at PRMT4 [12]. The “PRMT6 inhibition” value at PRMT6 [9] is “inactive to PRMT6”. Besides, the “fold reduction of PRMT3 inhibition vs YD1113” value on PRMT3 [10] is given as “over 10 fold”.

With `Nc1ncnc2c1ncn2[C@@H]1O[C@H](CSCCNC(=O)Nc2ccccc2)[C@@H](O)[C@H]1O` [Compound 7f, 1-(2-((((2S,3S,4R,5R)-5-(6-amino-9H-purin-9-yl)-3,4-dihydroxytetrahydrofuran-2-yl)methyl)thio)ethyl)-3-phenylurea], the IC50 in the test with PRMT3 [7] was 1.9 ± 0.12 µM. For the same compound, the inhibition at 10 µM amounted to 12% at PRMT8 [8]; 28% on PRMT6 [9]; 9% on PRMT1 [4]; 86% against PRMT3 [10]; 84% on PRMT4 [12]. For the same compound, the “PRMT6 inhibition” value on PRMT6 [9] was “inactive to PRMT6”. On PRMT3 [10], the “fold reduction of PRMT3 inhibition vs YD1113” value was determined as 4 fold.

For `Nc1ncnc2c1ncn2[C@@H]1O[C@H](CSCCNC(=O)NCc2ccccc2Br)[C@@H](O)[C@H]1O` [Compound 7h], the inhibition at 10 µM on PRMT8 [8] was -13%; on PRMT6 [9], -11%; on PRMT1 [4], 12%; at PRMT3 [10] it was 25%; on PRMT4 [12], 96%. Besides, the IC50 in the test with PRMT4 [11] worked out at 21 ± 2.8 nM.

As for `Nc1ncnc2c1ncn2[C@@H]1O[C@H](CSCCNC(=O)Nc2ccc(F)cc2)[C@@H](O)[C@H]1O` [Compound 7j, 1-(2-((((2S,3S,4R,5R)-5-(6-amino-9H-purin-9-yl)-3,4-dihydroxytetrahydrofuran-2-yl)methyl)thio)ethyl)-3-(4-fluorophenyl)urea], the IC50 in the test on PRMT3 [7] was 2 ± 0.23 µM. For the same compound, the inhibition at 10 µM was determined as 1% at PRMT8 [8]; 17% on PRMT6 [9]; 17% against PRMT1 [4]; 78% at PRMT3 [10]; 88% on PRMT4 [12]. For the same compound, at PRMT6 [9], the “PRMT6 inhibition” value was “inactive to PRMT6”. Further, the “fold reduction of PRMT3 inhibition vs YD1113” value on PRMT3 [10] is on record as 4 fold.

Consider `Nc1ncnc2c1ncn2[C@@H]1O[C@H](CSCCNC(=O)Nc2ccc(Cl)cc2)[C@@H](O)[C@H]1O` [Compound 7k, 1-(2-((((2S,3S,4R,5R)-5-(6-amino-9H-purin-9-yl)-3,4-dihydroxytetrahydrofuran-2-yl)methyl)thio)ethyl)-3-(4-chlorophenyl)urea], for which the IC50 in the test on PRMT3 [7] is 22 ± 2.9 µM. Further, the inhibition at 10 µM on PRMT8 [8] was -1%; on PRMT6 [9] it was 2%; against PRMT1 [4], 7%; against PRMT3 [10], 30%; at PRMT4 [12], 67%. At PRMT3 [10] (vs 1i), the “fold reduction of PRMT3 inhibition vs 1i” value came to 10 fold.

As for `Nc1ncnc2c1ncn2[C@@H]1O[C@H](CSCCNC(=O)Nc2cccc3ccccc23)[C@@H](O)[C@H]1O` [Compound 7l, 1-(2-((((2S,3S,4R,5R)-5-(6-amino-9H-purin-9-yl)-3,4-dihydroxytetrahydrofuran-2-yl)methyl)thio)ethyl)-3-(naphthalen-1-yl)urea], the IC50 came to 81 ± 17 µM in the test with PRMT3 [7] and 470 ± 120 nM in the test on PRMT4 [11]. Moreover, the inhibition at 10 µM worked out at 5% on PRMT8 [8]; 2% at PRMT6 [9]; 13% on PRMT1 [4]; 1% on PRMT3 [10]; 88% at PRMT4 [12]. Further, at PRMT3 [10] (vs phenyl (1h)), the “fold reduction of PRMT3 inhibition vs 1h” value is given as “over 40 fold”.

Take `Nc1ncnc2c1ncn2[C@@H]1O[C@H](CSCCCNC(=O)NCc2ccccc2)[C@@H](O)[C@H]1O` [Compound 7p, 1-(3-((((2S,3S,4R,5R)-5-(6-amino-9H-purin-9-yl)-3,4-dihydroxytetrahydrofuran-2-yl)methyl)thio)propyl)-3-benzylurea]: the IC50 in the test with PRMT3 [7] amounted to 70 ± 11 µM; in the test on PRMT4 [11] it was 3600 ± 420 nM. Also, the inhibition at 10 µM at PRMT8 [8] stood at 12%; on PRMT6 [9] it was 67%; against PRMT1 [4] it was 7%; against PRMT3 [10], 13%; at PRMT4 [12], 76%. The inhibition at 70 µM against PRMT3 [10] (70 μM) turned out to be 50%.

Consider `Nc1ncnc2c1ncn2[C@@H]1O[C@H](CSCCNCc2cccc(-c3ccoc3)c2)[C@@H](O)[C@H]1O` [Compound 10d], for which the inhibition at 10 µM on PRMT8 [8] worked out at 44%; on PRMT6 [9], 46%; against PRMT1 [4] it was 14%; against PRMT3 [10], 1%; on PRMT4 [12], 100%. Further, in the test on PRMT4 [11], the IC50 is 1200 ± 180 nM.

In the case of `Nc1ncnc2c1ncn2[C@@H]1O[C@H](CSCCNCc2cccc(-c3cncnc3)c2)[C@@H](O)[C@H]1O` [Compound 10g], the inhibition at 10 µM was 36% at PRMT8 [8]; 31% on PRMT6 [9]; 5% against PRMT1 [4]; 13% against PRMT3 [10]; 98% on PRMT4 [12]. The half-maximal inhibitory concentration (IC50) with PRMT4 [11] stood at 9300 ± 1100 nM.

Consider `Nc1ncnc2c1ncn2[C@@H]1O[C@H](CSCCCNCc2cccc(-c3cncnc3)c2)[C@@H](O)[C@H]1O` [Compound 10s], for which the inhibition at 10 µM on PRMT8 [8] was 39%; at PRMT6 [9] it was 65%; against PRMT1 [4] it was 28%; on PRMT3 [10], 24%; at PRMT4 [12] it was 97%. Besides, the IC50 in the test with PRMT4 [11] came out at 49000 ± 5700 nM.

The values are drawn from patent US20260306527A1, “PRMT INHIBITOR COMPOUNDS AND THE USES THEREOF” (Purdue Research Foundation, priority 2023, published 2026).
